From patent US10045980B2, “Inhibitor of p38 map kinase” (RESPIVERT LTD, priority 2014, dated 2018)

Tests used:
[1] = system: PBMCs; assay: Cell mitosis assay; format: cell-based; conditions: Homo sapiens, PBMC; At 5 ug/mL; PHA-treated PBMCs, 20 h exposure; Mean ± SEM
Method: Peripheral blood mononucleocytes (PBMCs) from healthy subjects were separated from whole blood (Quintiles, London, UK) using a density gradient (Histopaque-1077, Sigma-Aldrich, Poole, UK). The PBMCs (3 million cells per sample) were subsequently treated with 2% PHA (Sigma-Aldrich, Poole, UK) for 48 h, followed by a 20 h exposure to varying concentrations of test compounds. At 2 h before collection, PBMCs were treated with demecolcine (0.1 μg/mL; Life Technologies, Paisley, UK,) to arrest cells in metaphase.

[2] = system: d-U937 cells; assay: LPS-induced TNFα/IL-8 release in d-U937 cells; format: cell-based; conditions: Homo sapiens
Method: U937 cells, a human monocytic cell line, were differentiated into macrophage-type cells by incubation with PMA (100-200 ng/mL) for 48 to 72 hr. Cells were pre-incubated with final concentrations of test compound for 2 h and were then stimulated with LPS (0.1 μg/mL; from E. Coli: 0111:64, Sigma) for 4 h. The supernatant was collected for determination of TNFα and IL-8 concentrations by sandwich ELISA (Duo-set, R&D systems). […] The relative 50% effective concentration (REC50) was determined from the resultant concentration-response curve. The inhibition of IL-8 production was calculated at each concentration of test compound by comparison with vehicle control.

[3] = system: sputum macrophages from COPD patients; assay: Cytokine production in LPS-treated sputum macrophages from COPD patients; format: cell-based; conditions: Homo sapiens, Macrophage; at 0.1 μg/mL; LPS 1 μg/mL, 18 h; read-out: Percent Inhibition IL-6
Method: Patients with COPD inhaled a nebulised solution of 3% (w/v) hypertonic saline using an ultrasonic nebuliser (Devilbiss, Carthage, Mo.) with tidal breathing for 5 min. This procedure was repeated a maximum of three times until enough sputum was obtained. The sputum samples were homogenized and mixed vigorously using a vortex mixer in 0.02% v/v dithiothreitol (DTT) solution. The samples were re-suspended in PBS (40 mL) followed by centrifugation at 1500 rpm at 4° C. for 10 min to obtain sputum cell pellets. The pellets were washed with PBS (40 mL). […]
Where appropriate, 1 μL of a solution containing either the test compound or reference article at the stated concentrations (either 0.1 μg/mL, 0.01 μg/mL, or 0.001 μg/mL) or alternatively 1 μL of DMSO as the vehicle control was added to each well (200 μL in media) and the cells were incubated for 2 h. […] After washing with 200 μL wash buffer per well, the beads were resuspended in sheath fluid (150 μL) and analyzed immediately. The level of each analyte in the supernatant was calculated using Xcel Fit software with a 4 or 5-parameter equation using each standard curve. The inhibitions of each cytokine production were calculated at each concentration by comparison with vehicle control.

[4] = target: T1, Hck (Homo sapiens, UniProt P08631); assay: Hck enzyme inhibition (Z-LYTE FRET); format: biochemical
T1 construct: purchased Life Technologies
T1 sequence (P08631 22-526): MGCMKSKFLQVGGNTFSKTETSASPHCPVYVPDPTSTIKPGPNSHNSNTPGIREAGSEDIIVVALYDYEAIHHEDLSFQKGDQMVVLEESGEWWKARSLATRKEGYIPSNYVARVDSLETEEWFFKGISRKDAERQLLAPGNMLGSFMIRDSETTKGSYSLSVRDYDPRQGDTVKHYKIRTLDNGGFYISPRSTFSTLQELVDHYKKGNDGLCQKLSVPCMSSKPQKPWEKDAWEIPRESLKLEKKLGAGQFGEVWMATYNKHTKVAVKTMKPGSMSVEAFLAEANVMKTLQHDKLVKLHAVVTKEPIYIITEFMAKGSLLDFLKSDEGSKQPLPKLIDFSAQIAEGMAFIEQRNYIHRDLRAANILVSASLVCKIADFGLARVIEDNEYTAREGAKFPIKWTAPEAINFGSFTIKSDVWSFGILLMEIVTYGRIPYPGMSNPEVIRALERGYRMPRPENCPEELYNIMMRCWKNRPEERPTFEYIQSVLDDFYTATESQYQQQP
Method: The enzyme inhibitory activities of the compound disclosed herein were determined by FRET using synthetic peptides labelled with both donor and acceptor fluorophores (Z-LYTE, Life Technologies, Paisley, UK).
The relevant enzyme (1000 ng/mL, 1400 ng/mL or 2000 ng/mL respectively, 2.5 μL) was incubated with the test compound (either 40 μg/mL, 12 μg/mL, 4 μg/mL, 1.2 μg/mL, 0.4 μg/mL, 0.12 μg/mL, 0.04 μg/mL, 0.012 μg/mL, 0.004 μg/mL or 0.0012 μg/mL, 2.5 μL each) for 2 h at RT. The FRET peptides (8 μM, 2.5 μL), and appropriate ATP solutions (2.5 μL, 800 μM for c-Src, and 60 μM ATP for HCK and Syk) were then added to the enzyme/compound mixtures and incubated for 1 h at RT. Development reagent (protease, 5 μL) was added for 1 h prior to detection in a fluorescence microplate reader (EnVision, Perkin Elmer).
In all cases, the site-specific protease cleaves non-phosphorylated peptide only and eliminates the FRET signal. Phosphorylation levels of each reaction were calculated using the ratio of coumarin emission (donor) over fluorescein emission (acceptor), for which low ratios indicate high phosphorylation and high ratios indicate low phosphorylation levels.

Structure (SMILES): CCc1cncc(Nc2cc(COc3ccc(NC(=O)Nc4cc(C(C)(C)C)nn4-c4ccc(C)cc4)c4ccccc34)ccn2)n1 [Compound of the invention, 1-(3-(tert-butyl)-1-(p-tolyl)-1H-pyrazol-5-yl)-3-(4-((2-((6-ethylpyrazin-2-yl)amino)pyridin-4-yl)methoxy)naphthalen-1-yl)urea]
- inhibition at 5 µg/mL [1]: 18 ± 7%
- EC50 ([2]; dU937, 4 h, read-out: LPS Induced Release TNFα REC50 (dU937)): 5.5 nM
- IC50 ([2]; dU937, d-U937 cells, LPS 0.1 μg/mL, 4 h): 11.4 nM
- inhibition at 0.1 µg/mL [3]: 48 ± 9%
- IC50 [4]: 55 nM
